Tested on: hemoglobin
Assay: Residual percentage of hemoglobin in buffer solution with additive after storage at 37° C., hemoglobin concentration by latex agglutination immunoassay (OC sensor DIANA)
Parameters: species or system human
Conditions: for Residual percentage After 6 hours of storage / Residual percentage After 24 hours of storage: 37° C.; for effect of stabilizing hemoglobin (result in words): storage at 37° C., 6 and 24 hours, versus control sample; for residual percentages of hemoglobin after 6 hours of storage and after 24 hours of storage (result in words): stored at a high temperature of 37° C.
Procedure: A solution (pH7.0) containing 0.3 w/v % bovine serum albumin, NaOH, 0.05 mol/L phosphate buffer solution as a buffer solution, and pure water as the remainder was prepared. 1,2-EDS as an additive was added, to the solution in such an amount as to give each concentration (0.01 to 0.2 mol/L) listed in Table 1, thereby preparing a solution at each concentration. Hemolytic hemoglobin was added to 10 mL of the prepared solutions in such an amount as to give a 600 ng/mL sample.
Immediately after addition of hemoglobin, the hemoglobin concentration (concentration immediately after addition) of each sample was measured. Subsequently, each sample was stored at 37° C. With the time of adding hemoglobin designated as 0 hour of storage, hemoglobin concentration of each sample was measured after 6 hours of storage and after 24 hours of storage (concentration after 6 hours of storage and concentration after 24 hours of storage).
Hemoglobin concentration was measured using an OC sensor DIANA analyzer (Eiken Chemical Co., Ltd) and a dedicated reagent (OC-Hemodia Auto III: Eiken Chemical Co., Ltd) based on the measurement principle, a latex agglutination reaction; that is, a type of immunoassay method. Specifically, 35 μL of the sample was collected and used as a test solution, and then 60 μL of latex (latex solution sensitized with 20 vol % anti-human hemoglobin rabbit polyclonal antibody) and 300 μL of diluent (11.92 mg/mL HEPES) were added to the test solution, followed by measurement of absorbance at a wavelength of 660 nm. Based on a previously produced calibration curve, hemoglobin concentration in the test solution was determined from the thus obtained measurement value. Measurement was performed in triplicate for each sample, the mean value of the measurement results was employed as the hemoglobin concentration of each sample.
From the thus measured hemoglobin concentrations, the residual percentages of hemoglobin were found based on the following formula.
Residual percentage [%] of hemoglobin after 6 hours of storage or after 24 hours of storage=100×hemoglobin concentration [ng/mL] after 6 hours of storage or after 24 hours of storage/concentration [ng/mL] immediately after addition in control sample.
Specifically, the residual percentage of hemoglobin of each sample is a relative value with the hemoglobin concentration (immediately after addition) in a control sample designated as 100%. The control sample in this example was a phosphate buffer solution (containing no 1,2-EDS) containing bovine serum albumin and NaOH, and the concentration immediately after addition in the control sample was 583 ng/mL.
Samples were prepared in a manner similar to Example 1 except that 0.05 mol/L N-(2-hydroxyethyl)piperazine-N′-ethanesulfonic acid (hereinafter, referred to as HEPES) was used instead of a phosphate buffer solution and that 1,2-EDS was added in such an amount as to give each concentration (0.005 to 0.2 mol/L) listed in Table 2, and then hemoglobin concentrations were measured. In addition, the residual percentage of each sample was represented by a relative value with the concentration immediately after addition (576 ng/mL) in a control sample (HEPES buffer solution (containing no 1,2-EDS) containing bovine serum albumin and NaOH) designated as 100%.
Samples were prepared in a manner similar to Example 1 except that 0.05 mol/L HEPES, 0.05 mol/L piperazine-N,N′-bis(2-ethanesulfonic acid) (hereinafter, referred to as PIPES) or 0.05 mol/L 2-morpholinoethanesulfonic acid (hereinafter, referred to as MES) was used instead of a phosphate buffer solution, and that 1,2-EDS was added in such an amount as to give each concentration listed in Table 3, and then hemoglobin concentrations were measured. […]

[1] = HEPES buffer, additive 5 mM, relative to HEPES control (576 ng/mL)
[2] = HEPES buffer, additive 10 mM, relative to HEPES control (576 ng/mL)
[3] = HEPES buffer, additive 20 mM, relative to HEPES control (576 ng/mL)
[4] = HEPES buffer, additive 20 mM, relative to phosphate control (583 ng/mL)
[5] = HEPES buffer, additive 40 mM, relative to HEPES control (576 ng/mL)
[6] = HEPES buffer, additive 60 mM, relative to HEPES control (576 ng/mL)
[7] = HEPES buffer, additive 100 mM, relative to HEPES control (576 ng/mL)
[8] = HEPES buffer, additive 150 mM, relative to HEPES control (576 ng/mL)
[9] = HEPES buffer, additive 200 mM, relative to HEPES control (576 ng/mL)
[10] = MES buffer, additive 20 mM, relative to phosphate control (583 ng/mL)
[11] = PIPES buffer, additive 20 mM, relative to phosphate control (583 ng/mL)
[12] = phosphate buffer pH7.0, additive 10 mM, relative to control immediately after addition (583 ng/mL)
[13] = phosphate buffer, additive 20 mM, relative to control (583 ng/mL)
[14] = phosphate buffer, additive 40 mM, relative to control (583 ng/mL)
[15] = phosphate buffer, additive 60 mM, relative to control (583 ng/mL)
[16] = phosphate buffer, additive 100 mM, relative to control (583 ng/mL)
[17] = phosphate buffer, additive 150 mM, relative to control (583 ng/mL)
[18] = phosphate buffer, additive 200 mM, relative to control (583 ng/mL)
[19] = HEPES buffer, additive 150 mM, relative to phosphate control (548 ng/mL)
[20] = phosphate buffer, additive 50 mM, relative to phosphate control (548 ng/mL)
[21] = phosphate buffer, additive 150 mM, relative to phosphate control (548 ng/mL)

O=S(=O)(O)CCS(=O)(=O)O [1,2-EDS, 1,2-ethanedisulfonic acid]
Residual percentage After 6 hours of storage [1]: 64.3% | Residual percentage After 24 hours of storage [1]: 14.0% | Residual percentage After 6 hours of storage [2]: 65.2% | Residual percentage After 24 hours of storage [2]: 16.6% | Residual percentage After 6 hours of storage [3]: 67.1% | Residual percentage After 24 hours of storage [3]: 18.1% | Residual percentage After 6 hours of storage [4]: 67.6% | Residual percentage After 24 hours of storage [4]: 20.2% | Residual percentage After 6 hours of storage [5]: 68.5% | Residual percentage After 24 hours of storage [5]: 19.7% | Residual percentage After 6 hours of storage [6]: 71.3% | Residual percentage After 24 hours of storage [6]: 20.8% | Residual percentage After 6 hours of storage [7]: 72.4% | Residual percentage After 24 hours of storage [7]: 21.6% | Residual percentage After 6 hours of storage [8]: 72.8% | Residual percentage After 24 hours of storage [8]: 20.4% | Residual percentage After 6 hours of storage [9]: 73.1% | Residual percentage After 24 hours of storage [9]: 21.8% | Residual percentage After 6 hours of storage [10]: 65.9% | Residual percentage After 24 hours of storage [10]: 18.7% | Residual percentage After 6 hours of storage [11]: 63.6% | Residual percentage After 24 hours of storage [11]: 14.3% | Residual percentage After 6 hours of storage [12]: 52.5% | Residual percentage After 24 hours of storage [12]: 7.5% | Residual percentage After 6 hours of storage [13]: 56.3% | Residual percentage After 24 hours of storage [13]: 9.0% | Residual percentage After 6 hours of storage [14]: 61.9% | Residual percentage After 24 hours of storage [14]: 12.8% | Residual percentage After 6 hours of storage [15]: 59.7% | Residual percentage After 24 hours of storage [15]: 12.3% | Residual percentage After 6 hours of storage [16]: 65.4% | Residual percentage After 24 hours of storage [16]: 16.6% | Residual percentage After 6 hours of storage [17]: 71.5% | Residual percentage After 24 hours of storage [17]: 24.3% | Residual percentage After 6 hours of storage [18]: 46.2% | Residual percentage After 24 hours of storage [18]: 7.9% | effect of stabilizing hemoglobin (result in words): effect of stabilizing hemoglobin | residual percentages of hemoglobin after 6 hours of storage and after 24 hours of storage (result in words): high levels

O=S(=O)(O)CCCCS(=O)(=O)O [1,4-BDS, 1,4-butanedisulfonic acid]
Residual percentage After 6 hours of storage [19]: 74.7% | Residual percentage After 24 hours of storage [19]: 28.4% | Residual percentage After 6 hours of storage [20]: 68.3% | Residual percentage After 24 hours of storage [20]: 14.5% | Residual percentage After 6 hours of storage [21]: 69.9% | Residual percentage After 24 hours of storage [21]: 18.4% | effect of stabilizing hemoglobin (result in words): effect of stabilizing hemoglobin | residual percentages of hemoglobin after 6 hours of storage and after 24 hours of storage (result in words): high levels

O=S(=O)(O)c1ccc2cc(S(=O)(=O)O)ccc2c1 [2,6-NDS, 2,6-naphthalenedisulfonic acid]
Residual percentage After 6 hours of storage [20]: 55.7% | Residual percentage After 24 hours of storage [20]: 11.1% | effect of stabilizing hemoglobin (result in words): effect of stabilizing hemoglobin | residual percentages of hemoglobin after 6 hours of storage and after 24 hours of storage (result in words): high levels

O=S(=O)(O)c1cccc2cccc(Nc3ccccc3)c12 [ANS, 8-anilino-1-naphthalenesulfonate, reference compound]
Residual percentage After 6 hours of storage [12]: 2.6% | Residual percentage After 24 hours of storage [12]: 2.5%

O=S(=O)([O-])CCS.[Na+] [MESS, sodium 2-mercaptoethanesulfonate, reference compound]
Residual percentage After 6 hours of storage [12]: 33.4% | Residual percentage After 24 hours of storage [12]: 3.3%

O=S(=O)(O)CCN1CCN(CCS(=O)(=O)O)CC1 [PIPES, piperazine-N,N′-bis(2-ethanesulfonic acid)]
Residual percentage After 6 hours of storage [20]: 58.4% | Residual percentage After 24 hours of storage [20]: 10.4% | effect of stabilizing hemoglobin (result in words): effect of stabilizing hemoglobin
